Laboratory results reported in patent US9980486B2, “Herbicidal quinolines” (Syngenta Participations AG, priority 2014, dated 2018).

Experiments:
Assay in all cases: Experiment B1 glasshouse herbicide test, pre- and post-emergence, percentage damage
Format in all cases: in vivo
Conditions in all cases: evaluated after 13 days
[1] = system: Amaranthus retoflexus (AMARE)
Description: (§1) Seeds of a variety of test species are sown in standard soil in pots (Lolium perenne (LOLPE), Solanum nigrum (SOLNI), Amaranthus retoflexus (AMARE), Setaria faberi (SETFA), Echinochloa crus-galli (ECHCG), Ipomoea hederacea (IPOHE)). After cultivation for one day (pre-emergence) or after 8 days cultivation (post-emergence) under controlled conditions in a glasshouse (at 24/16° C., day/night; 14 hours light; 65% humidity), the plants are sprayed with an aqueous spray solution derived from the formulation of the technical active ingredient in acetone/water (50:50) solution containing 0.5% Tween 20 (polyoxyethelyene sorbitan monolaurate, CAS RN 9005-64-5). […] The test plants are then grown in a glasshouse under controlled conditions in a glasshouse (at 24/16° C., day/night; 14 hours light; 65% humidity) and watered twice daily. After 13 days for pre and post-emergence, the test is evaluated for the percentage damage caused to the plant. The biological activities are shown in the following table on a five point scale (5=80-100%; 4=60-79%; 3=40-59%; 2=20-39%; 1=0-19%).

Solanum nigrum (SOLNI) = system: Solanum nigrum (SOLNI)
Description: as §1

[2] = system: Echinochloa crus-galli (ECHCG)
Description: as §1

Lolium perenne (LOLPE) = system: Lolium perenne (LOLPE)
Description: as §1

[3] = system: Ipomoea hederacea (IPOHE)
Description: as §1

Setaria faberi (SETFA) = system: Setaria faberi (SETFA)
Description: as §1

[4] = POST Application (post-emergence, after 8 days cultivation), 1000 g/h
[5] = PRE Application (pre-emergence, after cultivation for one day), 1000 g/h
[6] = POST Application (post-emergence), applied at 250 g/ha
[7] = PRE Application (pre-emergence), applied at 250 g/ha

SMILES | percentage damage caused to the plant, five point scale, AMARE [1, 4] | percentage damage caused to the plant, five point scale, AMARE [1, 5] | percentage damage caused to the plant, five point scale, SOLNI (Solanum nigrum (SOLNI); [4]) | percentage damage caused to the plant, five point scale, SOLNI (Solanum nigrum (SOLNI); [5]) | percentage damage caused to the plant, five point scale, ECHCG [2, 4] | percentage damage caused to the plant, five point scale, ECHCG [2, 5] | percentage damage caused to the plant, five point scale, LOLPE (Lolium perenne (LOLPE); [4]) | percentage damage caused to the plant, five point scale, LOLPE (Lolium perenne (LOLPE); [5]) | percentage damage caused to the plant, five point scale, IPOHE [3, 4] | percentage damage caused to the plant, five point scale, IPOHE [3, 5] | percentage damage caused to the plant, five point scale, SETFA (Setaria faberi (SETFA); [4]) | percentage damage caused to the plant, five point scale, SETFA (Setaria faberi (SETFA); [5]) | further results
CCn1nnnc1NC(=O)c1cc2cccnc2c(-c2ccccc2)c1C(F)(F)F [Compound 1.002] | 5 (5=80-100%) | 5 (5=80-100%) | 5 (5=80-100%) | 5 (5=80-100%) | 5 (5=80-100%) | 5 (5=80-100%) | 5 (5=80-100%) | 5 (5=80-100%) | 5 (5=80-100%) | 5 (5=80-100%) | 5 (5=80-100%) | 5 (5=80-100%) | 
CCCn1nnnc1NC(=O)c1cc2cccnc2c(-c2ccccc2)c1C(F)(F)F [Compound 1.003] | 5 (5=80-100%) | 5 (5=80-100%) | 5 (5=80-100%) | 5 (5=80-100%) | 3 (3=40-59%) | 5 (5=80-100%) | 1 (1=0-19%) | 1 (1=0-19%) | 4 (4=60-79%) | 2 (2=20-39%) | 2 (2=20-39%) | 1 (1=0-19%) | 
Cn1nnnc1NC(=O)c1cc2cc(F)cnc2c(-c2ccccc2)c1C(F)(F)F [Compound 1.007, 3-fluoro-N-(1-methyltetrazol-5-yl)-8-phenyl-7-(trifluoromethyl)quinoline-6-carboxamide] | 5 (5=80-100%) | 5 (5=80-100%) | 5 (5=80-100%) | 5 (5=80-100%) | 5 (5=80-100%) | 5 (5=80-100%) | 5 (5=80-100%) | 5 (5=80-100%) | 5 (5=80-100%) | 5 (5=80-100%) | 5 (5=80-100%) | 5 (5=80-100%) | 
COc1c(C(=O)Nc2nnnn2C)cc2cccnc2c1-c1ccccc1 [Compound 1.009, 7-methoxy-N-(1-methyltetrazol-5-yl)-8-phenyl-quinoline-6-carboxamide] | 5 (5=80-100%) | 5 (5=80-100%) | 5 (5=80-100%) | 5 (5=80-100%) | 5 (5=80-100%) | 5 (5=80-100%) | 4 (4=60-79%) | 5 (5=80-100%) | 5 (5=80-100%) | 5 (5=80-100%) | 5 (5=80-100%) | 5 (5=80-100%) | 
Cn1nnnc1NC(=O)c1cc2cccnc2c(-c2ccccc2)c1S(C)(=O)=O [Compound 1.010, 7-METHYLSULFONYL-N-(1-METHYLTETRAZOL-5-YL)-8-PHENYL-QUINOLINE-6-CARBOXAMIDE] |  |  |  |  |  |  |  |  |  |  |  |  | percentage damage caused to the plant, five point scale, AMARE [1, 6]: 5 (5=80-100%); percentage damage caused to the plant, five point scale, AMARE [1, 7]: 5 (5=80-100%); percentage damage caused to the plant, five point scale, SOLNI (Solanum nigrum (SOLNI); [6]): 5 (5=80-100%); percentage damage caused to the plant, five point scale, SOLNI (Solanum nigrum (SOLNI); [7]): 5 (5=80-100%); percentage damage caused to the plant, five point scale, ECHCG [2, 6]: 5 (5=80-100%); percentage damage caused to the plant, five point scale, ECHCG [2, 7]: 5 (5=80-100%); percentage damage caused to the plant, five point scale, LOLPE (Lolium perenne (LOLPE); [6]): 4 (4=60-79%); percentage damage caused to the plant, five point scale, LOLPE (Lolium perenne (LOLPE); [7]): 2 (2=20-39%); percentage damage caused to the plant, five point scale, IPOHE [3, 6]: 5 (5=80-100%); percentage damage caused to the plant, five point scale, IPOHE [3, 7]: 4 (4=60-79%); percentage damage caused to the plant, five point scale, SETFA (Setaria faberi (SETFA); [6]): 5 (5=80-100%); percentage damage caused to the plant, five point scale, SETFA (Setaria faberi (SETFA); [7]): 2 (2=20-39%)
Cn1nnnc1NC(=O)c1cc2cccnc2c(-c2ccccc2)c1Cl [Compound 1.011, 7-chloro-N-(1-methyltetrazol-5-yl)-8-phenyl-quinoline-6-carboxamide] | 5 (5=80-100%) | 5 (5=80-100%) | 5 (5=80-100%) | 5 (5=80-100%) | 5 (5=80-100%) | 5 (5=80-100%) | 5 (5=80-100%) | 5 (5=80-100%) | 5 (5=80-100%) | 5 (5=80-100%) | 5 (5=80-100%) | 5 (5=80-100%) | 
Cc1ccc(-c2c(C(F)(F)F)c(C(=O)Nc3nnnn3C)cc3cccnc23)cc1 [Compound 1.017] | 5 (5=80-100%) | 5 (5=80-100%) | 5 (5=80-100%) | 5 (5=80-100%) | 5 (5=80-100%) | 5 (5=80-100%) | 4 (4=60-79%) | 4 (4=60-79%) | 5 (5=80-100%) | 5 (5=80-100%) | 5 (5=80-100%) | 5 (5=80-100%) | 
